Data from the supplement of paper PMC13207355.

Columns and labels:
Conditions in all cases: exposure time: 72 h
E13 [1] = patient-derived glioblastoma stem cells of classical subtype; assay: surviving fraction (nuclei count normalised to DMSO); higher = more cells surviving (less toxic)
E21 [2] = patient-derived glioblastoma stem cells of mesenchymal subtype; assay: as above
E28 [3] = patient-derived glioblastoma stem cells of classical subtype; assay: as above
E31 [4] = patient-derived glioblastoma stem cells of proneural subtype; assay: as above
E34 [5] = patient-derived glioblastoma stem cells of proneural subtype; assay: as above
E57 [6] = patient-derived glioblastoma stem cells of mesenchymal subtype; assay: as above
FT3469 [7] = normal neural stem cell line; assay: as above
E13 [8] = assay: phenotypic distance (Euclidean, principal components) from DMSO controls (arbitrary units); higher = stronger morphological change
E21 [9] = assay: as above
E28 [10] = assay: as above
E31 [11] = assay: as above
E34 [12] = assay: as above
E57 [13] = assay: as above
FT3469 [14] = assay: as above
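Throughout, for phenotypic distance (Euclidean, principal components) from DMSO controls: cell Painting imaging in 384-well plates, CellProfiler features reduced to at least 20 principal components, Euclidean distance versus same-plate DMSO vehicle wells (0.1% v/v), median over six images per well.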
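Throughout, for surviving fraction (nuclei count normalised to DMSO): nuclei counted by high-content imaging of Hoechst-stained cells in laminin-coated 384-well plates, relative to 0.1% DMSO vehicle wells, with staurosporine as cell-death control.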

OCCN1CCN(CCCN2c3ccccc3Sc3ccc(Cl)cc32)CC1 [Perphenazine]
Conditions | phenotypic distance | surviving fraction
E13 [1], 4.1 nM | – | 0.93
E13 [1], 12.3 nM | – | 0.94
E13 [1], 37 nM | – | 0.849
E13 [1], 111.1 nM | – | 0.98
E13 [1], 333.3 nM | – | 0.964
E13 [1], 1000 nM | – | 1.05
E13 [1], 3000 nM | – | 0.837
E13 [8], 4.1 nM | 2.64 | –
E13 [8], 12.3 nM | 2.33 | –
E13 [8], 37 nM | 3.22 | –
E13 [8], 111.1 nM | 0.78 | –
E13 [8], 333.3 nM | 1.14 | –
E13 [8], 1000 nM | 3.07 | –
E13 [8], 3000 nM | 3.61 | –
E21 [2], 4.1 nM | – | 0.925
E21 [2], 12.3 nM | – | 1.06
E21 [2], 37 nM | – | 1.03
E21 [2], 111.1 nM | – | 1.05
E21 [2], 333.3 nM | – | 1.11
E21 [2], 1000 nM | – | 0.954
E21 [2], 3000 nM | – | 0.73
E21 [9], 4.1 nM | 0.988 | –
E21 [9], 12.3 nM | 0.761 | –
E21 [9], 37 nM | 0.693 | –
E21 [9], 111.1 nM | 1.08 | –
E21 [9], 333.3 nM | 0.995 | –
E21 [9], 1000 nM | 0.917 | –
E21 [9], 3000 nM | 2.66 | –
E28 [3], 4.1 nM | – | 1.09
E28 [3], 12.3 nM | – | 1.12
E28 [3], 37 nM | – | 1.07
E28 [3], 111.1 nM | – | 1.19
E28 [3], 333.3 nM | – | 0.953
E28 [3], 1000 nM | – | 1.09
E28 [3], 3000 nM | – | 0.848
E28 [10], 4.1 nM | 0.747 | –
E28 [10], 12.3 nM | 0.879 | –
E28 [10], 37 nM | 0.787 | –
E28 [10], 111.1 nM | 0.725 | –
E28 [10], 333.3 nM | 0.749 | –
E28 [10], 1000 nM | 0.938 | –
E28 [10], 3000 nM | 1.93 | –
E31 [4], 4.1 nM | – | 0.97
E31 [4], 12.3 nM | – | 1.07
E31 [4], 37 nM | – | 1.08
E31 [4], 111.1 nM | – | 1.14
E31 [4], 333.3 nM | – | 1.18
E31 [4], 1000 nM | – | 1.24
E31 [4], 3000 nM | – | 0.912
E31 [11], 4.1 nM | 1.23 | –
E31 [11], 12.3 nM | 0.866 | –
E31 [11], 37 nM | 0.873 | –
E31 [11], 111.1 nM | 1.86 | –
E31 [11], 333.3 nM | 1.75 | –
E31 [11], 1000 nM | 2.15 | –
E31 [11], 3000 nM | 3.18 | –
E34 [5], 4.1 nM | – | 0.951
E34 [5], 12.3 nM | – | 1.05
E34 [5], 37 nM | – | 1.1
E34 [5], 111.1 nM | – | 1.05
E34 [5], 333.3 nM | – | 0.994
E34 [5], 1000 nM | – | 1.19
E34 [5], 3000 nM | – | 0.986
E34 [12], 4.1 nM | 1.05 | –
E34 [12], 12.3 nM | 0.866 | –
E34 [12], 37 nM | 0.902 | –
E34 [12], 111.1 nM | 2.15 | –
E34 [12], 333.3 nM | 1.04 | –
E34 [12], 1000 nM | 1.51 | –
E34 [12], 3000 nM | 1.42 | –
E57 [6], 4.1 nM | – | 0.964
E57 [6], 12.3 nM | – | 0.957
E57 [6], 37 nM | – | 1
E57 [6], 111.1 nM | – | 1.1
E57 [6], 333.3 nM | – | 1.15
E57 [6], 1000 nM | – | 1.12
E57 [6], 3000 nM | – | 1.13
E57 [13], 4.1 nM | 1.04 | –
E57 [13], 12.3 nM | 0.836 | –
E57 [13], 37 nM | 0.782 | –
E57 [13], 111.1 nM | 0.979 | –
E57 [13], 333.3 nM | 0.789 | –
E57 [13], 1000 nM | 1.66 | –
E57 [13], 3000 nM | 2.41 | –
FT3469 [7], 4.1 nM | – | 1.11
FT3469 [7], 12.3 nM | – | 0.955
FT3469 [7], 37 nM | – | 1.01
FT3469 [7], 111.1 nM | – | 1.04
FT3469 [7], 333.3 nM | – | 0.866
FT3469 [7], 1000 nM | – | 0.938
FT3469 [7], 3000 nM | – | 1.03
FT3469 [14], 4.1 nM | 0.72 | –
FT3469 [14], 12.3 nM | 0.971 | –
FT3469 [14], 37 nM | 0.546 | –
FT3469 [14], 111.1 nM | 0.602 | –
FT3469 [14], 333.3 nM | 0.84 | –
FT3469 [14], 1000 nM | 0.79 | –
FT3469 [14], 3000 nM | 1.58 | –
